In US20250160329A1, “AGROCHEMICAL ADJUVANTS” (Croda International Pic, priority 2022, published 2025):

Test system: Botrytis cinerea (ATCC 90479)
Experiment: Botrytis cinerea hyphal growth inhibition on PDA agar (colony diameter), adjuvant with or without pyraclostrobin
Type: cell-based
Conditions: for Fold Change in Growth Inhibition: 48 h, 22° C., relative to pyraclostrobin alone
Text: As a measure of the adjuvant activity in relation to the activity of the fungicide alone (e.g. pyraclostrobin) to B. cinerea a value of percent inhibition (adjuvant and fungicide) divided by percent inhibition (fungicide) can be defined, with higher values desired. A value of 1 would therefore represent equal activity of the adjuvant/fungicide combination to the fungicide alone, whereas a value above 1 would represent higher activity with the adjuvant/fungicide combination than the fungicide alone. The actives of the present invention may have a value greater than 1. Preferably greater than 1.5, most preferably greater than 2.
Percent Inhibition—The percent inhibition will be understood to represent the amount the fungicide and/or adjuvant that inhibits the visible growth of the microorganism after 48 hours incubation at 22° C. relative to vehicle treated controls. This is calculated using the following formula:
[formula] • where: • ØC=diameter of the colony grown on agar supplemented with vehicle (i.e. vehicle treated control), and • ØT=diameter of the colony grown on agar supplemented with fungicide and/or adjuvant formulated in an appropriate vehicle (i.e. solvent such as water C2H5OH, CH3OH, CH3CN, DMSO).
Fold Change—The fold change is a measure of the adjuvant/fungicide combination in inhibiting a microorganism compared to the fungicide alone. This indicates how the adjuvant performs relative to the fungicide alone. This is calculated using the following formula:
INHAF/INHF • where: • INHAF=percent inhibition of fungal growth when treated with fungicide and adjuvant, and • INHF=percent inhibition of fungal growth when treated with fungicide alone.
Botrytis cinerea (ATCC 90479) was cultured on Difco Potato Dextrose Agar (PDA) for 7 days with diurnal UV cycles (12 h UV light and 12 h dark). Spores were harvested in a buffered, sterile saline solution (w/v: 0.9% NaCl with 1% Tween 80) and counted using a haemocytometer. The spore suspension was adjusted to a final concentration of 8.5×10^6 spores/mL to create a standardised inoculum.
To prepare hyphal fragments for adjuvant testing, 8.5×10^4 spores were used to inoculate 10 mL of Difco Potato Dextrose Broth in a 150×25 mm tube. The tube was incubated at 220 RPM, 22° C. for 48 hours.
To create hyphal fragments from the culture, the culture was transferred to a 50 mL plastic conical tube containing approximately 20 sterile 5 mm diameter glass beads and vortexed for 5 min. […]
Fungicides and adjuvants were dissolved in methanol and added to molten PDA (−50° C.) and then the agar was distributed in the wells of 12 well multiwell plates (1 mL/well). […] The plates were incubated at 22° C. for 48 hours and then the colony diameter was measured using a digital caliper. […]

O=C1N/C(=C\c2ccccc2)C(=O)N2CCCCC12 (stereo not shown) [DKP (Ia), cyclo(-dhPhe-Pip) diketopiperazine]
Fold Change in Growth Inhibition (adjuvant 32 μg/mL + pyraclostrobin (Pyra) 0.0156 μg/mL): 3.18 | Fold Change in Growth Inhibition (adjuvant 32 μg/mL + pyraclostrobin (Pyra) 0.0313 μg/mL): 1.36 | Fold Change in Growth Inhibition (adjuvant 32 μg/mL + pyraclostrobin (Pyra) 0.0625 μg/mL): 1.76 | fungicidal activity against B. cinerea (adjuvant alone) (adjuvant alone at […] (so in the source), no fungicide): no fungicidal activity
